What is called inhibition is the share of the control response that was lost under treatment. One may read the Ki as a measure of affinity in units of concentration, obtained from inhibition or displacement. High values mean lower affinity, low ones higher affinity. In general, IC50 refers to the point on the concentration scale where inhibition reaches its midpoint. Lower therefore signals higher potency.

The source of these data is ChEMBL document CHEMBL1138044, “4-amido-2-aryl-1,2,4-triazolo[4,3-a]quinoxalin-1-ones as new potent and selective human A3 adenosine receptor antagonists. synthesis, pharmacological evaluation, and ligand-receptor modeling studies” (J Med Chem, 2006).

Sequence of Adenosine receptor A2a (P29274 whole entry): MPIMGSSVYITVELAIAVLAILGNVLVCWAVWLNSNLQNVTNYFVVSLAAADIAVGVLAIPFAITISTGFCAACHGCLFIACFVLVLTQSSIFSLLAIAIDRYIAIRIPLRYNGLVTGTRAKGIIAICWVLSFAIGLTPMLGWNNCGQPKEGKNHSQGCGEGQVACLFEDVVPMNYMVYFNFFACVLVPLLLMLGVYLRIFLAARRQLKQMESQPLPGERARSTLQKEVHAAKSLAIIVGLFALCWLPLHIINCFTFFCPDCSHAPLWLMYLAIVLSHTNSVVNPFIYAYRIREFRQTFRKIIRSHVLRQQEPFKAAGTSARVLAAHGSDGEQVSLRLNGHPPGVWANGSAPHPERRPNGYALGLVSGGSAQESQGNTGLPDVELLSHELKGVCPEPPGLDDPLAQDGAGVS

One assay deals with T1, Adenosine receptor A1 (Homo sapiens) (UniProt P30542).
T1 sequence (whole entry): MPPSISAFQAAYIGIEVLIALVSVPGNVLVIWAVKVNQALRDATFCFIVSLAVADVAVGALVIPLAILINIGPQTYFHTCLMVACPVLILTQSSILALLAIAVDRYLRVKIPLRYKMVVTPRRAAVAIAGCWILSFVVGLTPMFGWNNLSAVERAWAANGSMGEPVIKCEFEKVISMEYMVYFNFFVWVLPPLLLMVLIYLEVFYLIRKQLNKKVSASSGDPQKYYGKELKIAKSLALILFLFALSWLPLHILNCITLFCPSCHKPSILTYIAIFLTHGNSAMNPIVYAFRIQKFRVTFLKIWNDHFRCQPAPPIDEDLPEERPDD
The assay can be described thus: Inhibition of [3H]DPCPX binding to human adenosine A1 receptor at 10 uM.
Conditions: not given
For the compound `COc1ccc(-n2nc3c(NC(=O)c4ccccc4)nc4c(N)cccc4n3c2=O)cc1`, the inhibition is 45%.

As for `COc1ccc(-n2nc3c(NC(=O)C(c4ccccc4)c4ccccc4)nc4c([N+](=O)[O-])cccc4n3c2=O)cc1`, the inhibition amounted to 11%.

Compound `O=C(Nc1nc2c([N+](=O)[O-])cccc2n2c(=O)n(-c3ccccc3)nc12)C(c1ccccc1)c1ccccc1` registered an inhibition of 12%.

As to `COc1ccc(-n2nc3c(N(C(=O)c4ccccc4)C(=O)c4ccccc4)nc4ccccc4n3c2=O)cc1`, the inhibition was 2%.

Consider `O=C(Nc1nc2c([N+](=O)[O-])cccc2n2c(=O)n(-c3ccccc3)nc12)c1ccccc1`, for which the inhibition turned out to be 15%.

A further assay addresses T2, Adenosine receptor A1 (Bos taurus, UniProt P28190).
T2 sequence (P28190 whole entry): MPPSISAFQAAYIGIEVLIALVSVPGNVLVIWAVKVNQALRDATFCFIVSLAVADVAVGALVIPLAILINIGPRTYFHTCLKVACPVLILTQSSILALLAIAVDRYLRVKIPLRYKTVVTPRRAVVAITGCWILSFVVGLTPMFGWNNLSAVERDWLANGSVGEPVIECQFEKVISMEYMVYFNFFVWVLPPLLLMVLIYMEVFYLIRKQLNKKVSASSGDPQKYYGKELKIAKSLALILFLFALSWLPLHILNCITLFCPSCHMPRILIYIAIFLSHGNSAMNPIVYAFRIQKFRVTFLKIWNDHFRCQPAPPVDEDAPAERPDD
The assay can be described thus: Displacement of [3H]DPCPX from adenosine A1 receptor in bovine brain membranes. Type of assay: cell membranes.
Conditions: not given
Take `Nc1cccc2c1nc(N(C(=O)c1ccccc1)C(=O)c1ccccc1)c1nn(-c3ccccc3)c(=O)n12`: the Ki is 79 nM.

The compound `CC(=O)Nc1nc2c([N+](=O)[O-])cccc2n2c(=O)n(-c3ccccc3)nc12` had a Ki of 6 nM. Compared with the last compound, the Ki is about 13-fold lower.

`COc1ccc(-n2nc3c(NC(=O)c4ccccc4)nc4c(N)cccc4n3c2=O)cc1` displayed a Ki of 393 nM. This Ki is about 66-fold higher than that of the compound before.

As to `COc1ccc(-n2nc3c(NC(=O)C(c4ccccc4)c4ccccc4)nc4c([N+](=O)[O-])cccc4n3c2=O)cc1`, the affinity, expressed as Ki, was 260 nM.

The compound `O=C(Nc1nc2c([N+](=O)[O-])cccc2n2c(=O)n(-c3ccccc3)nc12)C(c1ccccc1)c1ccccc1` returned a Ki of 3.9 nM.

The compound `COc1ccc(-n2nc3c(N(C(=O)c4ccccc4)C(=O)c4ccccc4)nc4ccccc4n3c2=O)cc1` showed a Ki of 175 nM. This Ki lies about 45-fold higher than the previous one.

Another assay has as its target Adenosine receptor A2a (Homo sapiens, UniProt P29274). In words: Inhibition of [3H]NECA binding to human adenosine A2A receptor at 10 uM.
Conditions: not given
`COc1ccc(-n2nc3c(NC(=O)c4ccccc4)nc4c(N)cccc4n3c2=O)cc1` came in with an inhibition of 24%.

The compound `COc1ccc(-n2nc3c(NC(=O)C(c4ccccc4)c4ccccc4)nc4c([N+](=O)[O-])cccc4n3c2=O)cc1` yielded an inhibition of 2%.

`O=C(Nc1nc2c([N+](=O)[O-])cccc2n2c(=O)n(-c3ccccc3)nc12)C(c1ccccc1)c1ccccc1` displayed an inhibition of 49%.

The compound `COc1ccc(-n2nc3c(N(C(=O)c4ccccc4)C(=O)c4ccccc4)nc4ccccc4n3c2=O)cc1` showed an inhibition of 26%.

The compound `O=C(Nc1nc2c([N+](=O)[O-])cccc2n2c(=O)n(-c3ccccc3)nc12)c1ccccc1` gave an inhibition of 25%.

Another assay deals with T3, Adenosine receptor A3 (Homo sapiens, UniProt P0DMS8).
T3 sequence (P0DMS8 whole entry): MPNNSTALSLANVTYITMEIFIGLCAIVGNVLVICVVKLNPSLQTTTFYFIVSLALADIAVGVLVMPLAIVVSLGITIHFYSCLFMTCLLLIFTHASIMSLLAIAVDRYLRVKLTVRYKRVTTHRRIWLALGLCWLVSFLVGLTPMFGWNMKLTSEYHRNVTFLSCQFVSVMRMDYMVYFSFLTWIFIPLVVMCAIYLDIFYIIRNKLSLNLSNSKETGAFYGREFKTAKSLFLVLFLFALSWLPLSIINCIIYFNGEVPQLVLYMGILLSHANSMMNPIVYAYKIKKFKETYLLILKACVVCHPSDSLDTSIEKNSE
The assay can be described thus: Displacement of [125I]AB-MECA from human adenosine A3 receptor expressed in CHO cells. Type of assay: cell-based.
Conditions: not given
(In general: Displacement assays read how much labelled ligand stays bound in the presence of the test substance.)
In turn, `Nc1cccc2c1nc(N(C(=O)c1ccccc1)C(=O)c1ccccc1)c1nn(-c3ccccc3)c(=O)n12` displayed a Ki of 1240 nM.

For the compound `O=C(Nc1nc2ccccc2n2c(=O)n(-c3ccc([N+](=O)[O-])cc3)nc12)c1ccccc1`, the inhibition constant (Ki) stood at 100 nM.

`COc1ccc(-n2nc3c(N(C(=O)c4ccccc4)C(=O)c4ccccc4)nc4c([N+](=O)[O-])cccc4n3c2=O)cc1` had a Ki of 343 nM.

For the compound `COc1ccc(-n2nc3c(NC(=O)c4ccccc4)nc4c(N)cccc4n3c2=O)cc1`, the Ki amounted to 1 nM.

`O=C(Nc1nc2c([N+](=O)[O-])cccc2n2c(=O)n(-c3ccccc3)nc12)C(c1ccccc1)c1ccccc1` came in with a Ki of 14.9 nM.

For the compound `COc1ccc(-n2nc3c(N(C(=O)c4ccccc4)C(=O)c4ccccc4)nc4ccccc4n3c2=O)cc1`, the affinity corresponds to a Ki of 3.29 nM.

Compound `O=C(Nc1nc2c([N+](=O)[O-])cccc2n2c(=O)n(-c3ccccc3)nc12)c1ccccc1` had an inhibition constant (Ki) of 22 nM.

The compound `COc1ccc(-n2nc3c(NC(=O)c4ccccc4)nc4c([N+](=O)[O-])cccc4n3c2=O)cc1` displayed an inhibitory constant (Ki) of 217 nM.

For another assay, the target named is T4, Adenosine receptor A3 (Homo sapiens) (UniProt P0DMS8).
T4 sequence (whole entry): T3 sequence (P0DMS8 whole entry)
The assay can be described thus: Inhibition of [125I]AB-MECA binding to human adenosine A3 receptor at 1 uM.
Conditions: not given
Take `CC(=O)Nc1nc2c([N+](=O)[O-])cccc2n2c(=O)n(-c3ccccc3)nc12`: the inhibition worked out at 18%.

In the case of `COc1ccc(-n2nc3c(NC(C)=O)nc4c([N+](=O)[O-])cccc4n3c2=O)cc1`, the inhibition is 36%.

Consider `O=C(Nc1nc2ccccc2n2c(=O)n(-c3ccc([N+](=O)[O-])cc3)nc12)C(c1ccccc1)c1ccccc1`, for which the inhibition was found to be 13%.

`O=C(c1ccccc1)N(C(=O)c1ccccc1)c1nc2c([N+](=O)[O-])cccc2n2c(=O)n(-c3ccccc3)nc12` had an inhibition of 27%.

The target of the next assay is T5, Adenosine receptor A1 (Bos taurus) (UniProt P28190).
T5 sequence (whole entry): T2 sequence (P28190 whole entry)
In words: Inhibition of [3H]DPCPX binding to adenosine A1 receptor in bovine brain membranes at 10 uM.
Conditions: not given
It is filed as cell membranes.
`COc1ccc(-n2nc3c(NC(C)=O)nc4c([N+](=O)[O-])cccc4n3c2=O)cc1` registered an inhibition of 0%.

Compound `O=C(Nc1nc2ccccc2n2c(=O)n(-c3ccc([N+](=O)[O-])cc3)nc12)c1ccccc1` yielded an inhibition of 55%.

As for `COc1ccc(-n2nc3c(N(C(=O)c4ccccc4)C(=O)c4ccccc4)nc4c([N+](=O)[O-])cccc4n3c2=O)cc1`, the inhibition was 20%.

`O=C(Nc1nc2ccccc2n2c(=O)n(-c3ccc([N+](=O)[O-])cc3)nc12)C(c1ccccc1)c1ccccc1` had an inhibition of 30%.

The compound `O=C(c1ccccc1)N(C(=O)c1ccccc1)c1nc2c([N+](=O)[O-])cccc2n2c(=O)n(-c3ccccc3)nc12` registered an inhibition of 39%.

On to `O=C(Nc1nc2c([N+](=O)[O-])cccc2n2c(=O)n(-c3ccccc3)nc12)c1ccccc1`, for which the inhibition is 32%.

`COc1ccc(-n2nc3c(NC(=O)c4ccccc4)nc4c([N+](=O)[O-])cccc4n3c2=O)cc1` returned an inhibition of 35%.

For another assay, the target named is T6, Adenosine receptor A2b (Homo sapiens, UniProt P29275).
T6 sequence (P29275 whole entry): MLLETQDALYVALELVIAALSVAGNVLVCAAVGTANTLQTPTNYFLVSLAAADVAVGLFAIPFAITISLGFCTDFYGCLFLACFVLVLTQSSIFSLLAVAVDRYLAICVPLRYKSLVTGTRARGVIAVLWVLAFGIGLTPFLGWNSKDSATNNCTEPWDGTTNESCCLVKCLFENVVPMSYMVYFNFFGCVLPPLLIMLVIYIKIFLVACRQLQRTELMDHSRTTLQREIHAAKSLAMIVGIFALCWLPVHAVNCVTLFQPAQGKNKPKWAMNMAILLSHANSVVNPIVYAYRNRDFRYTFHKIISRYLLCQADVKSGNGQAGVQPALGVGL
In words: Inhibition of NECA-stimulated cAMP level in CHO cells transfected with human adenosine A2B receptor. Type of assay: functional, cell-based.
Conditions: not given
Background: cAMP levels reflect the balance of adenylyl cyclase and phosphodiesterase activity.
The compound `COc1ccc(-n2nc3c(NC(=O)c4ccccc4)nc4c(N)cccc4n3c2=O)cc1` gave an IC50 of over 1000 nM.

Compound `COc1ccc(-n2nc3c(N(C(=O)c4ccccc4)C(=O)c4ccccc4)nc4ccccc4n3c2=O)cc1` yielded a concentration for half-maximal inhibition (IC50) of over 1000 nM.

The target of a further assay is T7, Adenosine receptor A2b (Homo sapiens) (UniProt P29275).
T7 sequence (whole entry): T6 sequence (P29275 whole entry)
In words: Inhibition of NECA-stimulated cAMP level in CHO cells transfected with human adenosine A2B receptor at 1 uM. Type of assay: functional, cell-based.
Conditions: not given
Compound `COc1ccc(-n2nc3c(NC(=O)c4ccccc4)nc4c(N)cccc4n3c2=O)cc1` gave an inhibition of 17%.

Regarding `COc1ccc(-n2nc3c(N(C(=O)c4ccccc4)C(=O)c4ccccc4)nc4ccccc4n3c2=O)cc1`, the inhibition is 13%.

The target of the next assay is T3, Adenosine receptor A3. In words: Antagonist activity against Cl-IB-MECA inhibited cAMP level in CHO cells transfected with human A3 receptor. It is filed as functional, cell-based.
Conditions: not given
Compound `COc1ccc(-n2nc3c(NC(=O)c4ccccc4)nc4c(N)cccc4n3c2=O)cc1` displayed an IC50 of 8.6 nM.

Turning to `COc1ccc(-n2nc3c(N(C(=O)c4ccccc4)C(=O)c4ccccc4)nc4ccccc4n3c2=O)cc1`, the IC50 is 31.8 nM. Against the preceding compound, the IC50 is about 3.7-fold higher.

The test system of another assay is Adenosine receptor A2a (Bos taurus). In words: Inhibition of [3H]CGS 21680 binding to adenosine A2A receptor in bovine striatal membranes at 10 uM. To be noted: Striatum, Membrane.
With `Nc1cccc2c1nc(N(C(=O)c1ccccc1)C(=O)c1ccccc1)c1nn(-c3ccccc3)c(=O)n12`, the inhibition amounted to 36%.

In the case of `CC(=O)Nc1nc2c([N+](=O)[O-])cccc2n2c(=O)n(-c3ccccc3)nc12`, the inhibition was determined as 36%.

As to `COc1ccc(-n2nc3c(NC(C)=O)nc4c([N+](=O)[O-])cccc4n3c2=O)cc1`, the inhibition is 7%.

In turn, `O=C(Nc1nc2ccccc2n2c(=O)n(-c3ccc([N+](=O)[O-])cc3)nc12)c1ccccc1` yielded an inhibition of 26%.

With `COc1ccc(-n2nc3c(NC(=O)C(c4ccccc4)c4ccccc4)nc4c([N+](=O)[O-])cccc4n3c2=O)cc1`, the inhibition is 0%.

`O=C(Nc1nc2ccccc2n2c(=O)n(-c3ccc([N+](=O)[O-])cc3)nc12)C(c1ccccc1)c1ccccc1` came in with an inhibition of 0%.

`O=C(Nc1nc2c([N+](=O)[O-])cccc2n2c(=O)n(-c3ccccc3)nc12)C(c1ccccc1)c1ccccc1` returned an inhibition of 29.5%.

The compound `O=C(c1ccccc1)N(C(=O)c1ccccc1)c1nc2c([N+](=O)[O-])cccc2n2c(=O)n(-c3ccccc3)nc12` had an inhibition of 0%.

`O=C(Nc1nc2c([N+](=O)[O-])cccc2n2c(=O)n(-c3ccccc3)nc12)c1ccccc1` registered an inhibition of 0%.

As to `COc1ccc(-n2nc3c(NC(=O)c4ccccc4)nc4c([N+](=O)[O-])cccc4n3c2=O)cc1`, the inhibition stood at 15%.
